# Assay results: patent publication US20100035755A1, “METHOD OF CONTROLLING WEEDS IN A TURF GRASS BY USING SULFONYLUREA COMPOUNDS” (Moghu Research Center Ltd., priority 2008, published 2010)
# What was measured:
# Veronica officinalis = experiment: Weed spectrum, greenhouse pot test; format: in vivo; conditions: two weeks after application
# Excerpt: (§1) To a rectangular plastic pot (surface area of 300 cm^2) in which sandy loam and mixed top soil (Boo-Nong Top Soil No. 3, for horticultural use) are filled in 1:1 ratio, eight different kinds of weed seeds including Poa annua and Digitaria sanguinalis as poaceae weed, Cyperus amuricus as cyperaceae weeds and Trifolium repens, Kummerowia striata, fleabane, Veronica officinalis and Portulaca oleracea as broadleaf weeds were sewn (50 to 100 seeds per each weed). These weeds are representative examples of the weeds which typically thrive in a turf grass field.
# (§2) The pot was kept in a greenhouse which was maintained at 25˜30° C. for daytime and 15˜25° C. for nighttime, respectively, and irrigation was carried out regularly. Fourteen days after seeding, when the turf grass and the weeds reached approximately at three-leaf stage, the weed seeds were again sewn in separate two pots or “Test chemical” and “Control chemical” were applied in the same manner as the method described above. In this regard, when plants were cultivated for two weeks and then the chemical application was carried out, it is designated as “post-emergence” treatment. On the other than, when the seeding was carried right before the chemical application, it is designated as “pre-emergence” treatment. Preparation of a chemical solution, application method, etc. are the same as above described for evaluation of turf grass selectivity. Two weeks after the chemical application, efficacy of the chemicals for each type of the weeds was evaluated (visual evaluation) based on 0 to 100 scale (i.e., 0 indicates no efficacy and 100 indicates complete weed control).
# Cyperus amuricus = experiment: Weed spectrum, greenhouse pot test; format: in vivo; conditions: two weeks after application
# Excerpt: as §1, §2
# Portulaca oleracea = experiment: Weed spectrum, greenhouse pot test; format: in vivo; conditions: two weeks after application
# Excerpt: as §1, §2
# Digitaria sanguinalis = experiment: Weed spectrum, greenhouse pot test; format: in vivo; conditions: two weeks after application
# Excerpt: as §1, §2
# Kentucky bluegrass = experiment: Turf grass selectivity, greenhouse pot test; format: in vivo, Poa pratensis
# Excerpt: (§3) Turf mats of Zoysia grass, bentgrass, Kentucky bluegrass, or perennial rye grass known as cool season turfgrass or western grass were purchased and cut into a piece having 10 cm×20 cm size. Then, each piece was transplanted in a rectangular plastic pot (surface area of 300 cm^2) in which sandy loam and mixed top soil (Boo-Nong Top Soil No. 3, for horticultural use) are filled in 1:1 ratio. After the transplantation, the grasses were cut once a week to maintain the blade height at 0.5-1.0 cm and cultivated for one month in a green house of which temperature was kept at 25˜30° C. for daytime and 15˜25° C. for nighttime, respectively. Then, the ‘test chemical’ of the above Examples 1 and 2 or ‘control chemical’ was applied thereto in an amount of 400, 200, 100, 50, 25, 12, 6, 3 g ai/ha. As a “control chemical”, pyrazolsulfuron ethyl wettable agent (manufactured by Dongbu Fine Chemicals; herein after, referred to as ‘control chemical No. 1’) and flazasulfuron (manufactured by Dongbu HiTek; herein after, referred to as ‘control chemical No. 2’), both sulfonylurea herbicides for a turf grass, were used. Application was carried out by using a track sprayer (R&D Sprayer, USA) equipped with Teejet 8002 nozzle (Spraying Systems Co., USA), and the application amount was adjusted to 2,000 L/ha, which is a typical application amount for a golf course in Korea. Application solution was prepared by diluting the “test chemical” or the “control chemical” with tap water. […] The test was repeated three times in a random arrangement and the results are given in average value of each test (see Table 2 below).
# Dandelion = experiment: Weed spectrum, greenhouse pot test; format: in vivo; conditions: two weeks after application
# Perennial rye grass = experiment: Turf grass selectivity, greenhouse pot test; format: in vivo
# Excerpt: as §3
# Zoysia japonica = experiment: Turf grass selectivity, greenhouse pot test; format: in vivo; conditions: for phytotoxicity (visual assessment 0-10): Zoysia japonica
# Excerpt: as §3
compound,measurement,setting,value
"COc1cc(OC)nc(NC(=O)NS(=O)(=O)c2ncccc2C(F)(F)F)n1 [Control chemical No. 2, Flazasulfuron, reference compound]",efficacy (0-100 scale),"Veronica officinalis; Post-emergence, 12 g ai/ha",10
same,efficacy (0-100 scale),"Veronica officinalis; Post-emergence, 25 g ai/ha",20
same,efficacy (0-100 scale),"Veronica officinalis; Post-emergence, 50 g ai/ha",30
same,efficacy (0-100 scale),"Veronica officinalis; Post-emergence, 100 g ai/ha",40
same,efficacy (0-100 scale),"Veronica officinalis; Pre-emergence, 12 g ai/ha",20
same,efficacy (0-100 scale),"Veronica officinalis; Pre-emergence, 25 g ai/ha",30
same,efficacy (0-100 scale),"Veronica officinalis; Pre-emergence, 50 g ai/ha",50
same,efficacy (0-100 scale),"Veronica officinalis; Pre-emergence, 100 g ai/ha",60
same,efficacy (0-100 scale),"Cyperus amuricus; Post-emergence, 12 g ai/ha",60
same,efficacy (0-100 scale),"Cyperus amuricus; Post-emergence, 25 g ai/ha",70
same,efficacy (0-100 scale),"Cyperus amuricus; Post-emergence, 50 g ai/ha",80
same,efficacy (0-100 scale),"Cyperus amuricus; Post-emergence, 100 g ai/ha",80
same,efficacy (0-100 scale),"Cyperus amuricus; Pre-emergence, 12 g ai/ha",40
same,efficacy (0-100 scale),"Cyperus amuricus; Pre-emergence, 25 g ai/ha",70
same,efficacy (0-100 scale),"Cyperus amuricus; Pre-emergence, 50 g ai/ha",80
same,efficacy (0-100 scale),"Cyperus amuricus; Pre-emergence, 100 g ai/ha",100
same,efficacy (0-100 scale),"Portulaca oleracea; Post-emergence, 12 g ai/ha",80
same,efficacy (0-100 scale),"Portulaca oleracea; Post-emergence, 25 g ai/ha",90
same,efficacy (0-100 scale),"Portulaca oleracea; Post-emergence, 50 g ai/ha",90
same,efficacy (0-100 scale),"Portulaca oleracea; Post-emergence, 100 g ai/ha",100
same,efficacy (0-100 scale),"Portulaca oleracea; Pre-emergence, 12 g ai/ha",40
same,efficacy (0-100 scale),"Portulaca oleracea; Pre-emergence, 25 g ai/ha",60
same,efficacy (0-100 scale),"Portulaca oleracea; Pre-emergence, 50 g ai/ha",90
same,efficacy (0-100 scale),"Portulaca oleracea; Pre-emergence, 100 g ai/ha",100
same,efficacy (0-100 scale),"Digitaria sanguinalis; Post-emergence, 12 g ai/ha",50
same,efficacy (0-100 scale),"Digitaria sanguinalis; Post-emergence, 25 g ai/ha",70
same,efficacy (0-100 scale),"Digitaria sanguinalis; Post-emergence, 50 g ai/ha",80
same,efficacy (0-100 scale),"Digitaria sanguinalis; Post-emergence, 100 g ai/ha",80
same,efficacy (0-100 scale),"Digitaria sanguinalis; Pre-emergence, 12 g ai/ha",60
same,efficacy (0-100 scale),"Digitaria sanguinalis; Pre-emergence, 25 g ai/ha",70
same,efficacy (0-100 scale),"Digitaria sanguinalis; Pre-emergence, 50 g ai/ha",90
same,efficacy (0-100 scale),"Digitaria sanguinalis; Pre-emergence, 100 g ai/ha",100
same,phytotoxicity (visual assessment 0-10),"Kentucky bluegrass; 3 g ai/ha, 2 weeks",10
same,phytotoxicity (visual assessment 0-10),"Kentucky bluegrass; 3 g ai/ha, 4 weeks",10
same,phytotoxicity (visual assessment 0-10),"Kentucky bluegrass; 6 g ai/ha, 2 weeks",10
same,phytotoxicity (visual assessment 0-10),"Kentucky bluegrass; 6 g ai/ha, 4 weeks",10
same,phytotoxicity (visual assessment 0-10),"Kentucky bluegrass; 12 g ai/ha, 2 weeks",10
same,phytotoxicity (visual assessment 0-10),"Kentucky bluegrass; 12 g ai/ha, 4 weeks",10
same,phytotoxicity (visual assessment 0-10),"Kentucky bluegrass; 25 g ai/ha, 2 weeks",10
same,phytotoxicity (visual assessment 0-10),"Kentucky bluegrass; 25 g ai/ha, 4 weeks",10
same,phytotoxicity (visual assessment 0-10),"Kentucky bluegrass; 50 g ai/ha, 2 weeks",10
same,phytotoxicity (visual assessment 0-10),"Kentucky bluegrass; 50 g ai/ha, 4 weeks",10
same,phytotoxicity (visual assessment 0-10),"Kentucky bluegrass; 100 g ai/ha, 2 weeks",10
same,phytotoxicity (visual assessment 0-10),"Kentucky bluegrass; 100 g ai/ha, 4 weeks",10
same,phytotoxicity (visual assessment 0-10),"Kentucky bluegrass; 200 g ai/ha, 2 weeks",10
same,phytotoxicity (visual assessment 0-10),"Kentucky bluegrass; 200 g ai/ha, 4 weeks",10
same,phytotoxicity (visual assessment 0-10),"Kentucky bluegrass; 400 g ai/ha, 2 weeks",10
same,phytotoxicity (visual assessment 0-10),"Kentucky bluegrass; 400 g ai/ha, 4 weeks",10
same,efficacy (0-100 scale),"Dandelion; Post-emergence, 12 g ai/ha",10
same,efficacy (0-100 scale),"Dandelion; Post-emergence, 25 g ai/ha",30
same,efficacy (0-100 scale),"Dandelion; Post-emergence, 50 g ai/ha",40
same,efficacy (0-100 scale),"Dandelion; Post-emergence, 100 g ai/ha",50
same,efficacy (0-100 scale),"Dandelion; Pre-emergence, 12 g ai/ha",30
same,efficacy (0-100 scale),"Dandelion; Pre-emergence, 25 g ai/ha",40
same,efficacy (0-100 scale),"Dandelion; Pre-emergence, 50 g ai/ha",50
same,efficacy (0-100 scale),"Dandelion; Pre-emergence, 100 g ai/ha",70
same,phytotoxicity (visual assessment 0-10),"Perennial rye grass; 3 g ai/ha, 2 weeks",10
same,phytotoxicity (visual assessment 0-10),"Perennial rye grass; 3 g ai/ha, 4 weeks",10
same,phytotoxicity (visual assessment 0-10),"Perennial rye grass; 6 g ai/ha, 2 weeks",10
same,phytotoxicity (visual assessment 0-10),"Perennial rye grass; 6 g ai/ha, 4 weeks",10
same,phytotoxicity (visual assessment 0-10),"Perennial rye grass; 12 g ai/ha, 2 weeks",10
same,phytotoxicity (visual assessment 0-10),"Perennial rye grass; 12 g ai/ha, 4 weeks",10
same,phytotoxicity (visual assessment 0-10),"Perennial rye grass; 25 g ai/ha, 2 weeks",10
same,phytotoxicity (visual assessment 0-10),"Perennial rye grass; 25 g ai/ha, 4 weeks",10
same,phytotoxicity (visual assessment 0-10),"Perennial rye grass; 50 g ai/ha, 2 weeks",10
same,phytotoxicity (visual assessment 0-10),"Perennial rye grass; 50 g ai/ha, 4 weeks",10
same,phytotoxicity (visual assessment 0-10),"Perennial rye grass; 100 g ai/ha, 2 weeks",10
same,phytotoxicity (visual assessment 0-10),"Perennial rye grass; 100 g ai/ha, 4 weeks",10
same,phytotoxicity (visual assessment 0-10),"Perennial rye grass; 200 g ai/ha, 2 weeks",10
same,phytotoxicity (visual assessment 0-10),"Perennial rye grass; 200 g ai/ha, 4 weeks",10
same,phytotoxicity (visual assessment 0-10),"Perennial rye grass; 400 g ai/ha, 2 weeks",10
same,phytotoxicity (visual assessment 0-10),"Perennial rye grass; 400 g ai/ha, 4 weeks",10
same,safety to Zoysia japonica,Zoysia japonica; 50 g ai/ha or less,safe
same,phytotoxicity (visual assessment 0-10),"Zoysia japonica; 3 g ai/ha, 2 weeks",0
same,phytotoxicity (visual assessment 0-10),"Zoysia japonica; 3 g ai/ha, 4 weeks",0
same,phytotoxicity (visual assessment 0-10),"Zoysia japonica; 6 g ai/ha, 2 weeks",0
same,phytotoxicity (visual assessment 0-10),"Zoysia japonica; 6 g ai/ha, 4 weeks",0
same,phytotoxicity (visual assessment 0-10),"Zoysia japonica; 12 g ai/ha, 2 weeks",0
same,phytotoxicity (visual assessment 0-10),"Zoysia japonica; 12 g ai/ha, 4 weeks",0
same,phytotoxicity (visual assessment 0-10),"Zoysia japonica; 25 g ai/ha, 2 weeks",0
same,phytotoxicity (visual assessment 0-10),"Zoysia japonica; 25 g ai/ha, 4 weeks",0
same,phytotoxicity (visual assessment 0-10),"Zoysia japonica; 50 g ai/ha, 2 weeks",1
same,phytotoxicity (visual assessment 0-10),"Zoysia japonica; 50 g ai/ha, 4 weeks",1
same,phytotoxicity (visual assessment 0-10),"Zoysia japonica; 100 g ai/ha, 2 weeks",2
same,phytotoxicity (visual assessment 0-10),"Zoysia japonica; 100 g ai/ha, 4 weeks",2
same,phytotoxicity (visual assessment 0-10),"Zoysia japonica; 200 g ai/ha, 2 weeks",4
same,phytotoxicity (visual assessment 0-10),"Zoysia japonica; 200 g ai/ha, 4 weeks",3
same,phytotoxicity (visual assessment 0-10),"Zoysia japonica; 400 g ai/ha, 2 weeks",7
same,phytotoxicity (visual assessment 0-10),"Zoysia japonica; 400 g ai/ha, 4 weeks",6
